Measurements: PMC2095803 (Nucleic Acids Research, 2007)
pIC50: −log10 of the molar value.

Key:
[1] = target: T1, Therminator DNA polymerase (Thermococcus sp., UniProt Q56366, A485L/D141A/E143A); experiment: PEP termination assay; format: biochemical, Thermococcus species 9ºN-7
T1 sequence (Q56366 1-775 D141A/E143A/A485L): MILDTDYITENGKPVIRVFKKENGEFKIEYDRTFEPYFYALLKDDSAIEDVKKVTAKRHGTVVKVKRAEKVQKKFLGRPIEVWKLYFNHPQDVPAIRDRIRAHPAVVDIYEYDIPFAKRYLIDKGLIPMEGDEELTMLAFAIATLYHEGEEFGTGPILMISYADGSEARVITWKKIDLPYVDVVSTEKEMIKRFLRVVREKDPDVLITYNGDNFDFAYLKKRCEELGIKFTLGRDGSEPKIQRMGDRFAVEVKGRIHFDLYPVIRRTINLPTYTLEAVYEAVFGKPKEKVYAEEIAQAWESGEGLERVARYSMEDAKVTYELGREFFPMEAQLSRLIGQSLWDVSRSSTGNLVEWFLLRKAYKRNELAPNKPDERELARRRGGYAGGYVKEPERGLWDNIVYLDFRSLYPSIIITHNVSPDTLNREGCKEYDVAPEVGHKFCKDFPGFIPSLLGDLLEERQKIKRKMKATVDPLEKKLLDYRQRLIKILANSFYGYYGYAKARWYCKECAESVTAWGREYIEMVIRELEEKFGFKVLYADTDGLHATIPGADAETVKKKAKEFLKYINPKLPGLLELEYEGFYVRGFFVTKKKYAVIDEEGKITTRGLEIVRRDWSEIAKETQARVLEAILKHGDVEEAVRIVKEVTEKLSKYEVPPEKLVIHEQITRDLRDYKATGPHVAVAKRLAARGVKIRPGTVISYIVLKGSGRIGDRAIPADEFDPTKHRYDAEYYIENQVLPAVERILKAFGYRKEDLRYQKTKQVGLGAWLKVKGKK

[2] = target: T2, Bst DNA polymerase (Geobacillus stearothermophilus, UniProt P52026); experiment: Oligonucleotide template assay; format: biochemical, Bacillus stearothermophilus; details: Bst; final concentration of 200 nM
T2 sequence (P52026 289-876 limits assumed): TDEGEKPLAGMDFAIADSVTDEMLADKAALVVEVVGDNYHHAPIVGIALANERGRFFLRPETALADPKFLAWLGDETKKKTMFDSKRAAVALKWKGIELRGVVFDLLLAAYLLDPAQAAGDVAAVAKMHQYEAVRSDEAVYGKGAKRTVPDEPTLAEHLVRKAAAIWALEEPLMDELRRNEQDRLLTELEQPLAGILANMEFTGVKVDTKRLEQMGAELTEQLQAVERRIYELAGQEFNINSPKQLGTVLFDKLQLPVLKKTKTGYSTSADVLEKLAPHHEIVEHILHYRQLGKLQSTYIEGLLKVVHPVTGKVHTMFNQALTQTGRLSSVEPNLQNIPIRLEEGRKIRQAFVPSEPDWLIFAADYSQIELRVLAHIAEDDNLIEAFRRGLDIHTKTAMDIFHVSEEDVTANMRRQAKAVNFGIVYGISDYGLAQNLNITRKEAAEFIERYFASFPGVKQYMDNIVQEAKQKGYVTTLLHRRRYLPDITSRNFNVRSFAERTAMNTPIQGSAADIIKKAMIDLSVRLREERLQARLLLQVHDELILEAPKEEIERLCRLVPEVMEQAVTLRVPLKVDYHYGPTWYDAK

With `O=[N+]([O-])c1ccccc1CNc1ncnc2c1ncn2[C@H]1C[C@H](O)[C@@H](COP(=O)(O)OP(=O)(O)OP(=O)(O)O)O1` [Compound IIIc, N^6-(2-Nitrobenzyl)-2’-deoxyadenosine-5’-triphosphate] the pIC50 [1] was 8.74 and the “Incorporation / termination of DNA synthesis” value [2] was “efficient, base-specific termination of DNA synthesis”.
